From patent US9896476B1, “Glycyrrhetic acid derivatives” (KING SAUD UNIVERSITY, priority 2017, dated 2018)

Columns and labels:
[1] = system: carrageenan-induced rat paw edema; assay: Carrageenan-induced rat paw edema; type: in vivo; conditions: for % Protection / Increase in paw edema (ml) ± SEM: 10 μmol/kg s.c. 1 h prior to carrageenan; for % Protection: 4 h, relative to DMSO control; for Increase in paw edema (ml) ± SEM: increase between 0 h and 4 h; for Activity relative to indomethacin: 10 μmol/kg s.c., indomethacin = 100
Procedure: Male albino rats weighing 120-150 g were used in these experiments. The rats were kept in an animal house under standard conditions of light and temperature with free access to food and water. The animals were randomly divided into groups of six rats each for each experimental and control group. The paw edema was induced by subplantar injection of […] of 2% carrageenan solution in saline (0.9%). […] A control group was injected with DMSO only. The volume of paw edema (ml) was determined by means of a plethysmometer immediately after carrageenan injection and 4 h later. The increase in paw volume between 0 h and 4 h after carrageenan injection was measured. The percentage protection against inflammation was calculated according to the following formula: % Protection=100%×(Vc−Vd)/Vc where Vc is the 4 h increase in paw volume in the control animals (control) and Vd is the 4 h increase in paw volume in the test animals. Data are expressed as the mean±SEM. Significant difference between the control and test groups was determined using Student's t-test and P values. The difference in results was considered significant when P<0.001.

[2] = molecular target: T1, H+/K+-ATPase (Sus scrofa, UniProt P19156); assay: H+/K+-ATPase (proton pump) inhibition in membrane vesicles of stomach mucosa; type: biochemical; conditions: pig gastric membrane vesicles, 37° C.; pre-incubation pH (6.0 or 7.4) not given
T1 construct: Membrane vesicles containing H^+/K^+-ATPase were prepared from pig stomachs; from tissue; host or cells: pig gastric mucosa membrane vesicles
Procedure: Membrane vesicles containing H^+/K^+-ATPase were prepared from pig stomachs obtained from a local slaughter house. Pigs were fasted overnight before slaughter. The gastric mucosa of four stomachs was rinsed with cold saturated NaCl solution for 3-5 min. The superficial cells, cell debris plus the mucus were wiped off with the edge of a plastic ruler and paper towels. The mucosa was scraped off. About 100 g of scrapings were divided into portions of 10 g and homogenized in 0.25 M sucrose with seven strokes in a Potter-Elvehjem Teflon-glass homogenizer. […] The pellet was discarded. The supernatant was centrifuged at 75,000 g for 1 h. The resulting microsomal pellet was homogenized in 30 ml 0.25 M sucrose. Aliquots of 15 ml were transferred to 100 ml centrifuge tubes and layered on top of step gradients, from the bottom comprising 25 ml 37% sucrose (w/v) and 45 ml 7.5% Ficoll (w/v) in 0.25 M sucrose. The tubes were centrifuged at 75,000 g for 1 h in a 6×100 ml ME angle rotor at 4° C. The gradient was then fractionated by pumping Fluoroinert 70 through narrow tubing in a fractionating cap down to the bottom of the tube. Fractions are collected from top through a center hole in the fractionating cap. The yield of vesicles in a typical preparation is about 50-75 mg protein. In order to maintain a stable vesicular structure for a long period of time, the vesicles were frozen at −70° C. under nitrogen, and could then be kept for several months without decrease of H^+/K^+-ATPase activity. The ATPase activity was measured at 37° C. as the release of inorganic phosphate (Pi) from ATP. […] Then, the medium of pH 6.0 is adjusted with HEPES/Tris buffer to pH 7.4. The enzyme reaction is started by addition of nigericin and Tris/ATP. The total reaction volume is 1 ml, containing 20 μg vesicular protein, 4 mM MgCl2, 10 mM KCl, 20 μM nigericin, 2 mM Tris-ATP, 10 mM HEPES and additionally 2 mM Pipes for the pre-incubation medium at pH 6.0. After […] at 37° C., the reaction is stopped by the addition of […] of 50% trichloroacetic acid. The denatured protein was spun down and the Pi content is determined according to Le Bel et al. (1978) and based on the reduction of a phosphomolybdate complex by p-methyl-aminophenol sulfate in a copper acetate buffer or according to Carter and Karl (1982) based on the reaction of phosphomolybdate with the basic dye malachite green. […] IC50 values of the test compound at different pH values were compared with IC50 values of the standard. Statistical differences (P<0.05) were calculated by Student's t-test.

[3] = Acute toxicity in mice; conditions: mouse, in vivo; male mice; route for the LD50 not stated (oral and intraperitoneal tests described)
Procedure: […]. The animals were divided into groups of six mice each. The compounds were given orally, suspended in 1% gum acacia, in doses of 1, 10, 100, 200, 250, 300 mg/kg.
The mortality percentage in each group was recorded after 24 h.
Additionally, the test compounds were investigated for their parenteral acute toxicity in groups of six mice each as reported earlier. The compounds, or their vehicle propylene glycol (control), were given by intraperitoneal injection in doses of 10, 25, 50, 75, 100 mg/kg. The percentage survival was followed up to seven days.

T1 sequence (P19156 2-1034 limits assumed): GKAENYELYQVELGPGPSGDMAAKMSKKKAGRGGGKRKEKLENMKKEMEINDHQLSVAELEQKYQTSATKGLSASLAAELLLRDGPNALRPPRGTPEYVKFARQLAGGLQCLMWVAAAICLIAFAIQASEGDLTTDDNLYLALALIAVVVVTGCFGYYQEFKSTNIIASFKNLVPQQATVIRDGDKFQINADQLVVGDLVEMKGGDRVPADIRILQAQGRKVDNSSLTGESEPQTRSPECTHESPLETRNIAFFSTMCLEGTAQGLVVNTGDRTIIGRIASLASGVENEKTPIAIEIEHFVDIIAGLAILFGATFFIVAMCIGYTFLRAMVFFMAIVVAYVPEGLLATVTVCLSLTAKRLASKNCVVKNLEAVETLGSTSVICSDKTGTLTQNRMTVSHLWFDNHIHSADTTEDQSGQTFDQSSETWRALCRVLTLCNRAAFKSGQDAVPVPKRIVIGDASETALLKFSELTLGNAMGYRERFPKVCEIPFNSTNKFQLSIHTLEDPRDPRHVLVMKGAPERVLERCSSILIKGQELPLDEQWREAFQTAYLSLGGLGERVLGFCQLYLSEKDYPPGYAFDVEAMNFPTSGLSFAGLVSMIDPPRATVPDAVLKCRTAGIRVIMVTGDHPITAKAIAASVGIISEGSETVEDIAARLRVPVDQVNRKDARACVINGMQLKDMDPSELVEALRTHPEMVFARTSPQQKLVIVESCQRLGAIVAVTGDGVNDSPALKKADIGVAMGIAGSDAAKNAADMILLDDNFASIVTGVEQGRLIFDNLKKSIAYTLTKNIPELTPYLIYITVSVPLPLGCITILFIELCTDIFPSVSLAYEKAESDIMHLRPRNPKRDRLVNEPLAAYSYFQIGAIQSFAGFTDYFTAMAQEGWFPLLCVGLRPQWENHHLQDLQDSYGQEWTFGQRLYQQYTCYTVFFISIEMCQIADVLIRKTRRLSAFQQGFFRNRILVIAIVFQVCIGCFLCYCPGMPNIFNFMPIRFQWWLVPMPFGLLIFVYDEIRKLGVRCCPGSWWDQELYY
T1 sequence (P18434 whole entry partner): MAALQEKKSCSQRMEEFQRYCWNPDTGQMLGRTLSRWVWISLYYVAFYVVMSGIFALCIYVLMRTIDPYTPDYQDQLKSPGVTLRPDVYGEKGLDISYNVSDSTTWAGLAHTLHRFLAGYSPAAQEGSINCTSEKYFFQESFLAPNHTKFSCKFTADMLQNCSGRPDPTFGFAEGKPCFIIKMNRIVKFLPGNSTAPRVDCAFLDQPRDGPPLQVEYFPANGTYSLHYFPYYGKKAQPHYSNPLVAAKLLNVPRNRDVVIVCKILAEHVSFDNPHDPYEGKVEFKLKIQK

| SMILES | % Protection [1] [%] | Increase in paw edema (ml) ± SEM [1] [mL] | Activity relative to indomethacin [1] | IC50 [2] [µM] | LD50 [3] [mg/kg] |
| --- | --- | --- | --- | --- | --- |
| Cn1nc2c(c1-c1ccc(F)cc1)CC1(C)C(CCC3(C)C1C(=O)C=C1C4CC5(C)CC(OC5=O)C4(C)CCC13C)C2(C)C (stereo not drawn) [Compound 4, 2-(4-fluorobenzylidene)-3,11-dioxo-18β-olean[3,2-c]-1′H-5′-(4-fluorophenyl)-N-methylpyrazoline-12-en-30-oic acid (30→22β) lactone] | 98.77 | 0.0121 ± 0.0002 | 132.58 | 9.21 ± 0.0076 | 3460 |
| Cn1nc2c(c1-c1ccc(F)cc1)CC1(C)C(CCC3(C)C1C(=O)C=C1C4CC(C)(C(=O)O)CCC4(C)CCC13C)C2(C)C (stereo not drawn) [Compound 3, 2-(4-fluorobenzylidene)-3,11-dioxo-18β-olean[3,2-c]-1′H-5′-(4-fluorophenyl)-N-methylpyrazoline-12-en-30-oic acid] | 98.49 | 0.0148 ± 0.0003 | 132.21 | 10.03 ± 0.0072 | 3360 |
| CC1(C(=O)O)CCC2(C)CCC3(C)C(=CC(=O)C4C5(C)C/C(=C\c6ccc(F)cc6)C(=O)C(C)(C)C5CCC43C)C2C1 (stereo not drawn) [Compound 2, 2-(4-fluorobenzylidene)-3,11-dioxo-18β-olean-12-en-30-oic acid] | 98.40 | 0.0157 ± 0.0004 | 132.09 | 11.46 ± 0.009 | 3100 |
